The source of these data is USRE48461E1, “Modulation of androgen receptor expression” (Ionis Pharmaceuticals, Inc., priority 2012, dated 2021).

For data set [1] the following is noted: cynomolgus monkey, in vivo, sc, 40 mg/kg.
Method: (§5) Prior to the study, the monkeys were kept in quarantine for a 30-day period, during which the animals were observed daily for general health. The monkeys were 2-4 years old and weighed between 2 and 4 kg. Thirteen groups of four randomly assigned male cynomolgus monkeys each were injected subcutaneously with ISIS oligonucleotide or PBS. PBS solution or ISIS oligonucleotides, at a dose of 40 mg/kg, were administered with a loading regimen consisting of four doses on the first week of the study (days 1, 3, 5, and 7), followed by a maintenance regimen consisting of once weekly administration starting on Day 14 (weeks 2 to 6). Subcutaneous injections were performed in clock-wise rotations at 4 sites on the back; one site per dose. The injection sites were delineated by tattoo, while sedated using ketamine, and were separated by a minimum of 3 cm.
To evaluate the effect of ISIS oligonucleotides on kidney function, the monkeys were fasted overnight. Approximately, 1.5 mL of blood samples were collected from all the study groups on day 44. Blood was collected in tubes without anticoagulant for serum separation. The tubes were kept at room temperature for a minimum of 90 min and then centrifuged at 3,000 rpm for 10 min. Levels of BUN and creatinine were measured using a Toshiba 120FR NEO chemistry analyzer (Toshiba Co., Japan).
The conditions of data set [2]: cynomolgus monkey, in vivo, sc, 40 mg/kg. This is another data set of the same source.
Method: as §5
Kidney function was also assessed by urinalysis. Fresh urine from all animals was collected on day 44 using a clean cage pan on wet ice. Food was removed overnight the day before fresh urine collection was done but water was supplied. The total protein and creatinine levels were measured using a Toshiba 120FR NEO automated chemistry analyzer (Toshiba Co., Japan) and the protein to creatinine ratio was calculated.
For data set [3] the following is noted: cynomolgus monkey, in vivo; for Oligonucleotide concentration, Kidney / Oligonucleotide concentration, Liver: sc, 40 mg/kg.
Method: as §5
The concentrations of the full-length oligonucleotide in the kidney and the liver of select treatment groups were measured. The method used is a modification of previously published methods (Leeds et al., 1996; Geary et al., 1999) which consist of a phenol-chloroform (liquid-liquid) extraction followed by a solid phase extraction.
The conditions of data set [4]: cynomolgus monkey, in vivo, sc, 40 mg/kg. The source holds these as a separate data set.
Method: The monkeys were 2-4 years old and weighed between 2 and 4 kg. Thirteen groups of four randomly assigned male cynomolgus monkeys each were injected subcutaneously with ISIS oligonucleotide or PBS. PBS solution or ISIS oligonucleotides, at a dose of 40 mg/kg, were administered with a loading regimen consisting of four doses on the first week of the study (days 1, 3, 5, and 7), followed by a maintenance regimen consisting of once weekly administration starting on Day 14 (weeks 2 to 6). Subcutaneous injections were performed in clock-wise rotations at 4 sites on the back; one site per dose. The injection sites were delineated by tattoo, while sedated using ketamine, and were separated by a minimum of 3 cm.
To evaluate any inflammatory effect of ISIS oligonucleotides in cynomolgus monkeys, the monkeys were fasted overnight. Approximately, 1.5 mL of blood samples were collected from all the study groups on day 44. Blood was collected in tubes without anticoagulant for serum separation. The tubes were kept at room temperature for a minimum of 90 min and then centrifuged at 3,000 rpm for 10 min. C-reactive protein (CRP), which is synthesized in the liver and which serves as a marker of inflammation, was measured on day 43 using a Toshiba 120FR NEO chemistry analyzer (Toshiba Co., Japan). Complement C3 was also measured similarly, and the data is presented as a percentage of baseline values.
The subject of data set [5] is testosterone. Kind of data set: Serum testosterone levels in cynomolgus monkeys (ELISA). The conditions noted are these: cynomolgus monkey, 40 mg/kg subcutaneously. The format is in vivo. As to the method: Serum testosterone protein levels were measured in the plasma with an ELISA kit (Enzo Life Sciences), following the manufacturer's instructions.
The conditions of data set [6]: cynomolgus monkey, in vivo, sc, 40 mg/kg. The source holds these as a separate data set.
The conditions of data set [7]: cynomolgus monkey, in vivo, sc, 40 mg/kg. This is another data set of the same source.
For data set [8] the following is noted: cynomolgus monkey, in vivo, sc, 40 mg/kg. The source holds these as a separate data set.
Method: as §5
To evaluate any effect of ISIS oligonucleotides in cynomolgus monkeys on hematologic parameters, blood samples of approximately 0.5 mL of blood was collected day 44 from each of the available study animals in tubes containing K2-EDTA. Samples were analyzed for red blood cell (RBC) count, white blood cells (WBC) count, platelet count, hemoglobin content and hematocrit, using an ADVIA2120i hematology analyzer (SIEMENS, USA).
Data set [9] relates to AR-V7. Nature of the data set: Western blot of AR-V7 in MDV3100-resistant C4-2B cells. The format is cell-based, human. The conditions noted are these: C4-2B MR cells (Example 16). As to the method:
(§1) ISIS 549372, ISIS 549434, and ISIS 554221 at 1 μM concentration of antisense oligonucleotide were each added to the culture media at 1 μM concentration for free uptake by the cells. After a treatment period of 2 days, cells were harvested in RIPA buffer containing protease inhibitors. The presence of bands for full-length AR, as well as the variant form, AR-V7, was detected by western blot using AR antibody (N-20, Santa Cruz).
(§2) Western analysis of full-length AR, as well as the AR-V7 variant, was also conducted in a manner similar to the assay described above.

For data set [10], the system named is full-length AR. Nature of the data set: Western blot of full-length AR in MDV3100-resistant C4-2B cells. Conditions: C4-2B MR cells (Example 16). The data set is classed as cell-based, human. As to the method:
as §1, §2

Data set [11] has as its system V7 splice variant of the AR mRNA. Kind of data set: AR V7 splice variant mRNA in CWR22-RV1 cells (RT-PCR SYBR Green). The format is cell-based, human. Conditions: RNAiMax, 6 days. As to the method: (§3) CWR22-RV1 cells were plated and transfected using RNAiMax reagent (Life Technologies) with ISIS oligonucleotides at 1.7 nM, 5.0 nM, 16.7 nM, or 50 nM concentrations. ISIS 347526 was included as a negative control. After a treatment period of 6 days, the target reduction and proliferative capacity of the cancer cells was measured.
(§4) Antisense inhibition of AR full-length mRNA was measured with the RTS3559 primer probe set. The results are presented in Table 63 as percent inhibition relative to non-treated cells. The reduction in V7 splice variant of the AR mRNA was also measured by RT-PCR using SYBR Green staining (Hu, R. et al., Cancer Res. 2009. 69: 16-22). The results are presented in Table 64, as percent reduction, relative to non-treated cells. Cell proliferation was measured with CellTiter 96® AQueous One Solution Cell Proliferation kit (Promega), following the manufacturer's instructions. Results are presented in Table 65 as percent inhibition of proliferation, relative to non-treated cells.

Data set [12] concerns CWR22-RV1 cells. Nature of the data set: CWR22-RV1 cell proliferation (CellTiter 96). The format is cell-based, human. Conditions: RNAiMax, 6 days. As to the method:
as §3, §4

Data set [13] has as its system AR full-length mRNA. Kind of data set: AR full-length mRNA in CWR22-RV1 cells (RNAiMax, RTS3559). The format is cell-based, human. Conditions: 6 days. As to the method:
as §3, §4

e = 2'-O-(2-methoxyethyl) (MOE); d = 2'-deoxy (DNA)

As to “ISIS 584269: antisense compound targeted to human AR (CCTTATGGATGCTGCT; 3-10-3 (S)-cEt gapmer, further chemistry not given here)”, in data set [1], the “Plasma BUN” value was determined as 21.8 mg/dL and the “Plasma Creatinine” value was 0.89 mg/dL. Further, the Urine protein/creatinine ratio in data set [2] worked out at 0.00. For the same substance, in data set [3], the K/L ratio is 4.0; the “Oligonucleotide concentration, Kidney” value was 2823 μg/g tissue; the “Oligonucleotide concentration, Liver” value came to 698 μg/g tissue. For the same substance, in data set [4], the “C3 (% of baseline)” value is 102 % of baseline and the CRP was determined as 4.9 mg/dL. Moreover, in [5], the Serum testosterone level is reported as 14.1 ng/mL. In data set [6], the “Body Wt” value was 2.5 kg, the Heart weight is recorded as 8.7 g, the Kidney weight stood at 13 g and the Liver weight amounted to 60 g. In addition, in [6], the “Mesenteric lymph nodes weight” value came to 3.6 g and the Spleen weight came to 4.7 g. In addition, in data set [7], the ALT is 75 IU/L, the AST was 81 IU/L and the Albumin was found to be 4.0 g/dL. In data set [8], this substance returned an HCT of 41%, a Hemoglobin of 12.4 g/dL, a Platelets of 522000 µL and an RBC of 5.2e+06 µL. In [8], this substance had a WBC of 9800 µL.
Regarding “TTGATTTAATGGTTGC [ISIS 579671] (cEt/MOE gapmer chemistry, further chemistry not given here)”, in data set [1], the “Plasma BUN” value stood at 22.7 mg/dL and the “Plasma Creatinine” value turned out to be 0.74 mg/dL. For the same substance, the Urine protein/creatinine ratio in data set [2] was found to be 0.00. In data set [3], the K/L ratio was 3.0; the “Oligonucleotide concentration, Kidney” value is given as 2576 μg/g tissue; the “Oligonucleotide concentration, Liver” value was 871 μg/g tissue. In addition, in [4], the “C3 (% of baseline)” value is given as 101 % of baseline and the CRP is 4.5 mg/dL. This substance also yielded a Serum testosterone level in data set [5] (40 mg/kg) of 7.3 ng/mL. Further, in data set [6], the “Body Wt” value was found to be 2.4 kg, the Heart weight is recorded as 8.8 g, the Kidney weight was 14 g and the Liver weight was found to be 62 g. Also, in [6], the “Mesenteric lymph nodes weight” value worked out at 2.5 g and the Spleen weight is 3.2 g. In data set [7], this substance returned an ALT of 56 IU/L, an AST of 53 IU/L and an Albumin of 4.0 g/dL. In [8], this substance yielded an HCT of 42%, a Hemoglobin of 12.5 g/dL, a Platelets of 438000 µL and an RBC of 5.4e+06 µL. Further, the WBC in [8] came out at 10000 µL.
Regarding “ISIS 584468: antisense compound targeted to human AR (CATTGTACTATGCCAG; 3-10-3 (S)-cEt gapmer, further chemistry not given here)”, in [1], the “Plasma BUN” value came out at 22.2 mg/dL and the “Plasma Creatinine” value is reported as 0.78 mg/dL. In addition, the Urine protein/creatinine ratio in [2] came out at 0.00. In [3], the K/L ratio is reported as 5.2; the “Oligonucleotide concentration, Kidney” value was 2441 μg/g tissue; the “Oligonucleotide concentration, Liver” value amounted to 474 μg/g tissue. In addition, in data set [4], the “C3 (% of baseline)” value was 111 % of baseline and the CRP worked out at 1.3 mg/dL. In [5], this substance returned a Serum testosterone level of 13.6 ng/mL. Moreover, in [6], the “Body Wt” value turned out to be 2.5 kg, the Heart weight amounted to 8.3 g, the Kidney weight is on record as 13 g and the Liver weight was found to be 60 g. For the same substance, in [6], the “Mesenteric lymph nodes weight” value is recorded as 3.8 g and the Spleen weight is on record as 4.1 g. In data set [7], this substance yielded an ALT of 46 IU/L, an AST of 52 IU/L and an Albumin of 4.0 g/dL. In data set [8], this substance came in with an HCT of 45%, a Hemoglobin of 13.5 g/dL, a Platelets of 408000 µL and an RBC of 5.9e+06 µL. Further, the WBC in data set [8] came to 11100 µL.
Regarding “TGATTTAATGGTTGCA [ISIS 569221] (cEt/MOE gapmer chemistry, further chemistry not given here)”, in [1], the “Plasma BUN” value was 20.2 mg/dL and the “Plasma Creatinine” value amounted to 0.86 mg/dL. Moreover, in data set [3], the “Oligonucleotide concentration, Kidney” value was determined as 1372 μg/g tissue and the “Oligonucleotide concentration, Liver” value is given as 966 μg/g tissue. In addition, in data set [4], the “C3 (% of baseline)” value is 91 % of baseline and the CRP amounted to 4.9 mg/dL. In [5] (40 mg/kg), this substance came in with a Serum testosterone level of 8.8 ng/mL. In addition, in data set [6], the “Body Wt” value worked out at 2.5 kg, the Heart weight is 8.5 g, the Kidney weight worked out at 14 g and the Liver weight worked out at 68 g. Also, in [6], the “Mesenteric lymph nodes weight” value came to 3.5 g and the Spleen weight is given as 3.3 g. In data set [7], this substance yielded an ALT of 48 IU/L, an AST of 73 IU/L and an Albumin of 4.0 g/dL. Moreover, in data set [8], the HCT was 45%, the Hemoglobin was 12.9 g/dL, the Platelets was 406000 µL and the RBC was determined as 5.6e+06 µL. Also, the WBC in [8] worked out at 11100 µL.
With “TCTTATGTTTCCGAACCGTT (sugars from the 5' end e5 d10 e5, backbone and methylation of C not given here) [ISIS 347526, reference compound]”, in [9], the “levels of AR-V7 (Western analysis)” value is given as “did not reduce protein levels”. Moreover, the “levels of full-length AR (Western analysis)” value in data set [10] is given as “did not reduce protein levels”. In addition, the “Percent inhibition of AR splice variant, V7” value was 0% in [11] (dose 5.0 nM), 0% in data set [11] (dose 16.7 nM) and 10% in data set [11] (dose 50.0 nM). The “Percent inhibition of cell proliferation” value in [12] (dose 5.0 nM), in data set [12] (dose 16.7 nM) and in data set [12] (dose 50.0 nM) was 0% each time. In addition, the “Percent inhibition of AR full-length mRNA” value in data set [13] (dose 5.0 nM) came out at 3%; in [13] (dose 16.7 nM), 4%; in [13] (dose 50.0 nM), 0%.
